Key:
D(2) dopamine receptor = D(2) dopamine receptor (Rattus norvegicus, UniProt P61169); assay: Binding affinity for dopamine receptor D2
D(1) dopamine receptor = D(1) dopamine receptor (Carassius auratus, UniProt P35406); assay: In vitro inhibition of dopamine stimulated adenylate cyclase
D(1A) dopamine receptor = D(1A) dopamine receptor (Rattus norvegicus, UniProt P18901); assay: Binding affinity for dopamine receptor D1
Rattus norvegicus [1] = assay: Compound was tested for the net contralateral rotations in rats 2 hr after administration of 1 uM/kg dopamine agonist; Activity expressed as net contralateral rotations / 2 hr; assay type: functional
Rattus norvegicus [2] = assay: Compound was tested for the net contralateral rotations in rats 2 hr after administration of 0.1 umol/kg, predosed with SCH-23390 (0.1 umol/kg sc), 40 min prior to injection of test compound; Activity expressed as net contralateral rotations / 2 hr
[3] = target: T1, 5-hydroxytryptamine receptor 1A (Rattus norvegicus, UniProt P19327); assay: Compound was tested in vitro for binding affinity for 5-hydroxytryptamine 1A receptor
T1 sequence (P19327 whole entry): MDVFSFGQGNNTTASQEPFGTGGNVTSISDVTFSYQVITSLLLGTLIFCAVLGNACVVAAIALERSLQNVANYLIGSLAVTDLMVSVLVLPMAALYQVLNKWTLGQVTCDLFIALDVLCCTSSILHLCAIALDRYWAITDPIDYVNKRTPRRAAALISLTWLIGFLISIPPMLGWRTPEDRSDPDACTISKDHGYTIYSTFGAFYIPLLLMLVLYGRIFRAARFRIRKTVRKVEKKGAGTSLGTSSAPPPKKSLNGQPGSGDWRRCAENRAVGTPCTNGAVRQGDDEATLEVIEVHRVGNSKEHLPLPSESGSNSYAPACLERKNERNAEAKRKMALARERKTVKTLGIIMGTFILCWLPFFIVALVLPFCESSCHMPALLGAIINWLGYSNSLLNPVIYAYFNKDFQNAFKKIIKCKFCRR

[4] = target: T2, Adrenergic receptor alpha-2 (Homo sapiens, UniProt P08913+P18825+P18089); assay: Compound was tested in vitro for binding affinity for alpha-2 adrenergic receptor; assay type: protein assay
T2 sequence (P08913 whole entry): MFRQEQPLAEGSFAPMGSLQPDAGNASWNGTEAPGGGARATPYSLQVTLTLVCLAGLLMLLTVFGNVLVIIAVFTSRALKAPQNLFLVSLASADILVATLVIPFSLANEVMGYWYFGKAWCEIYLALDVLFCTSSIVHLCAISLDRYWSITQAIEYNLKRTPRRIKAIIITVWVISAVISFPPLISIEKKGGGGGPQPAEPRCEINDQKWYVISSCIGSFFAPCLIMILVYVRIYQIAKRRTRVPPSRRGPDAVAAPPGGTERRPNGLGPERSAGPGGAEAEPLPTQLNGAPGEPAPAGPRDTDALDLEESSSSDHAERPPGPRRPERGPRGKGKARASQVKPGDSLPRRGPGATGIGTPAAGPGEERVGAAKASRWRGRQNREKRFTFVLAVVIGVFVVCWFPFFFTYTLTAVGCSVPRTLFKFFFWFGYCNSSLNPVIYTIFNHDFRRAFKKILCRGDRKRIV
T2 sequence (P18825 whole entry): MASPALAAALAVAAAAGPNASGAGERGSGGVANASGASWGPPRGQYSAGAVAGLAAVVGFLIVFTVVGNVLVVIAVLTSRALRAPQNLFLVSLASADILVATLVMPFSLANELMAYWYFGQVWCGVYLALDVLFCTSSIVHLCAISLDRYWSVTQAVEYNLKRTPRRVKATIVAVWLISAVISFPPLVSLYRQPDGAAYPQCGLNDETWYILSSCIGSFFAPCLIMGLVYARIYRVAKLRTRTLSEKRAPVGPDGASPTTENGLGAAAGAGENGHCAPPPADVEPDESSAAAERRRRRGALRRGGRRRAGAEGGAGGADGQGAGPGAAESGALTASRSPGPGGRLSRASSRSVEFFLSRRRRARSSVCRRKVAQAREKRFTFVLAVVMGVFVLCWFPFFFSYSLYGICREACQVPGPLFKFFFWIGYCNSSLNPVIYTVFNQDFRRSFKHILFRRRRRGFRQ
T2 sequence (P18089 whole entry): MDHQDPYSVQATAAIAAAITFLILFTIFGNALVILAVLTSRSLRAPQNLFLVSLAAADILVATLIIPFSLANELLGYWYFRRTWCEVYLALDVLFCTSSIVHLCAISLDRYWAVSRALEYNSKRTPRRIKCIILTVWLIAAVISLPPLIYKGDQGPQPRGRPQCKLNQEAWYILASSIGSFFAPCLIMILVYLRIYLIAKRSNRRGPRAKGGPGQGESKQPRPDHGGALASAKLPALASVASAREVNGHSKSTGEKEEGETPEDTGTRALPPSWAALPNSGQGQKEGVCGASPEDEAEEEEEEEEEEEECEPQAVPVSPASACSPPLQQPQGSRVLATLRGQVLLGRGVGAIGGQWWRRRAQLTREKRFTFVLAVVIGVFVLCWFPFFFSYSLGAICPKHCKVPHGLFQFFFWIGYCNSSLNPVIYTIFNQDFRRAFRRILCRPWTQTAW

Rattus norvegicus [5] = assay: Compound was tested for the net contralateral rotations in rats 2 hr after administration of 0.1 uM/kg dopamine agonist; Activity expressed as net contralateral rotations / 2 hr; assay type: functional
[6] = target: T3, Adrenergic receptor alpha-1 (Homo sapiens, UniProt P35348+P25100+P35368); assay: Compound was tested in vitro for binding affinity for alpha-1 adrenergic receptor; assay type: protein assay
T3 sequence (P35348 whole entry): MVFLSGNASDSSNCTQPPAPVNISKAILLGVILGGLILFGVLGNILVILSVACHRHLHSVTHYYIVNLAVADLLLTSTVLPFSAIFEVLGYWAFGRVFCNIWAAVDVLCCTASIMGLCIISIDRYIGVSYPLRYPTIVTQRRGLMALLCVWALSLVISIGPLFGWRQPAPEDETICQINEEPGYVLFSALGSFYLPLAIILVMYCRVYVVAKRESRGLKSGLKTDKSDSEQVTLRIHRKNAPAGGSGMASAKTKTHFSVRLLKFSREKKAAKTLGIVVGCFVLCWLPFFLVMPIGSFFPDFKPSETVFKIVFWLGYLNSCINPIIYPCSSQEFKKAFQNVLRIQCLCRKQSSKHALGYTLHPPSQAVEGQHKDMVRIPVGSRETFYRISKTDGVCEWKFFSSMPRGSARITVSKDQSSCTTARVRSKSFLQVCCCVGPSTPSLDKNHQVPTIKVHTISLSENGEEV
T3 sequence (P25100 whole entry): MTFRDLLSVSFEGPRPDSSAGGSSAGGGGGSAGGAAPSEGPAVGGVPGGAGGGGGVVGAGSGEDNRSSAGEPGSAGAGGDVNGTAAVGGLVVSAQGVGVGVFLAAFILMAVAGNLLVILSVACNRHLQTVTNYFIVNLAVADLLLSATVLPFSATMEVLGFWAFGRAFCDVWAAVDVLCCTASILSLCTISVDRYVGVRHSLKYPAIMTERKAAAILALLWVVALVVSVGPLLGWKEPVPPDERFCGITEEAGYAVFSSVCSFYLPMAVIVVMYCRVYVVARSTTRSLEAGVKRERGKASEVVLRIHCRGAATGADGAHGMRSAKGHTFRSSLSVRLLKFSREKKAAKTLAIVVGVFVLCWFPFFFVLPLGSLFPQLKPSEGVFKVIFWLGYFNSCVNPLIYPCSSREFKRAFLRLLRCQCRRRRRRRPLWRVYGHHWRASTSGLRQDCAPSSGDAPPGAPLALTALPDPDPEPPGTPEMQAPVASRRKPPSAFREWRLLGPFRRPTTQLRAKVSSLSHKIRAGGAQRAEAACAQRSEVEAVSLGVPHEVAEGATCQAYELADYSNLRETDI
T3 sequence (P35368 whole entry): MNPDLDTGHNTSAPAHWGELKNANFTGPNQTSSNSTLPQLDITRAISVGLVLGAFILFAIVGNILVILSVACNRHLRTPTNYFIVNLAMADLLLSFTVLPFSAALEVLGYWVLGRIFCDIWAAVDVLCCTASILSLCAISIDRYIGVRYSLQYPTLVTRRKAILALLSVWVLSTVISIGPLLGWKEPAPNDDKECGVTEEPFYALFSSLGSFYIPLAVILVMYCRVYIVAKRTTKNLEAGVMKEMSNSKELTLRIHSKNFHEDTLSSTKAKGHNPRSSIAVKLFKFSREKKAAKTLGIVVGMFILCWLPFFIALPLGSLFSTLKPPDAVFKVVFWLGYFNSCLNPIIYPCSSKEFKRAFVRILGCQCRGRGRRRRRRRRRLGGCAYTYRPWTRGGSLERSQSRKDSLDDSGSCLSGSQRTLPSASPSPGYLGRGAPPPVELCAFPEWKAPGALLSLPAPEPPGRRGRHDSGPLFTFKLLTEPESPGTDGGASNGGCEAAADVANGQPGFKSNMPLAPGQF

[7] = target: Beta-2 adrenergic receptor (Canis lupus familiaris, UniProt P54833); assay: Compound was tested in vitro for binding affinity for beta receptor
Chain of Beta-2 adrenergic receptor (P54833 whole entry): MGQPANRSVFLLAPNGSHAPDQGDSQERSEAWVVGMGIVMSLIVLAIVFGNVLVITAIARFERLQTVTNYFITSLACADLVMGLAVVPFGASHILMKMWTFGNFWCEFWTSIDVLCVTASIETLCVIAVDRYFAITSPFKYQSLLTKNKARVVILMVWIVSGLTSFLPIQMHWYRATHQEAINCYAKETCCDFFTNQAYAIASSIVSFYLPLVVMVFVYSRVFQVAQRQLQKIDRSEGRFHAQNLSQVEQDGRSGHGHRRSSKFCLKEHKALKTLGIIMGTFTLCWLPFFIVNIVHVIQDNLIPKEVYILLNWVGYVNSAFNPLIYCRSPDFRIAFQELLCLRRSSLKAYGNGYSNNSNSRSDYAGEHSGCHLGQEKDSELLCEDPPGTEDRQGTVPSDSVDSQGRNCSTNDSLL

[8] = target: Sodium-dependent dopamine transporter (Homo sapiens, UniProt Q01959); assay: In vitro binding affinity for dopamine uptake site
Chain of Sodium-dependent dopamine transporter (Q01959 whole entry): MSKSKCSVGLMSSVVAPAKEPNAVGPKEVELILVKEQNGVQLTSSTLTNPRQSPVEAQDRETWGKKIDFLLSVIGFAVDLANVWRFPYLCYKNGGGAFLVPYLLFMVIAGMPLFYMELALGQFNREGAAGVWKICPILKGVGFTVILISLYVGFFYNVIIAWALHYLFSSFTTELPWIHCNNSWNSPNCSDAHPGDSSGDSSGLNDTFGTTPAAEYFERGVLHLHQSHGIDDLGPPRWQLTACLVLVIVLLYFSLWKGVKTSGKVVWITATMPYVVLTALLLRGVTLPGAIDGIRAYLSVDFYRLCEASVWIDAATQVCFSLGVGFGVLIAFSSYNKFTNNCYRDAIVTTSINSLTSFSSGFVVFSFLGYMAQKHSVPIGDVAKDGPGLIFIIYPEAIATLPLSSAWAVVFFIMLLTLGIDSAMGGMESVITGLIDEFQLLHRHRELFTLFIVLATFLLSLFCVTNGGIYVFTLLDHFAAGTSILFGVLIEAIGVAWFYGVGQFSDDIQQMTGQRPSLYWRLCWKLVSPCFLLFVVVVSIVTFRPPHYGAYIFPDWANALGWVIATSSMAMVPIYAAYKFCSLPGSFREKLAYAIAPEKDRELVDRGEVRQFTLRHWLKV

[9] = target: Serotonin 2 (5-HT2) receptor (Rattus norvegicus, UniProt P30994+P08909+P14842); assay: Compound was tested in vitro for binding affinity for 5-hydroxytryptamine 2 receptor; assay type: protein assay
Rattus norvegicus [10] = assay: Compound was tested for the net contralateral rotations in rats 2 hr after sc administration of 1.7 umol/kg dopamine agonist; Activity expressed as net contralateral rotations / 2 hr; assay type: functional
Rattus norvegicus [11] = assay: Compound was tested for the net contralateral rotations in rats, 2 hr after sc administration of 0.43 umol/kg dopamine agonist; Activity expressed as net contralateral rotations / 2 hr; assay type: functional
Rattus norvegicus [12] = assay: Compound was tested for the net contralateral rotations in rats 2 hr after administration of 1.7 umol/kg, predosed with SCH-23390 (0.05 umol/kg sc), 40 min prior to injection of test compound; Activity expressed as net contralateral rotations / 2ho; assay type: functional

Chain of D(2) dopamine receptor (P61169 whole entry): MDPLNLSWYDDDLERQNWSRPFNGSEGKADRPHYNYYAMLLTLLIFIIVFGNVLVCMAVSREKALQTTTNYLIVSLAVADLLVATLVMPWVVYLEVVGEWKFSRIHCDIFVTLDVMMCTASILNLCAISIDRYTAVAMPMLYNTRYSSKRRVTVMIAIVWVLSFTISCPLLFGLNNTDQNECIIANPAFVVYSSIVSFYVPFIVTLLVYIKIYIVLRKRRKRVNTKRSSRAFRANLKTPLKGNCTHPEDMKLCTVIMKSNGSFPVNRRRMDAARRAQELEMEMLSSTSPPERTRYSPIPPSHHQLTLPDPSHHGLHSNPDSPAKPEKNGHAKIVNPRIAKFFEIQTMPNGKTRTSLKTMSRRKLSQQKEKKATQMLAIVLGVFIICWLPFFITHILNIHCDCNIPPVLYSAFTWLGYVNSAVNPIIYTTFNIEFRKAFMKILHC
Chain of D(1) dopamine receptor (P35406 whole entry): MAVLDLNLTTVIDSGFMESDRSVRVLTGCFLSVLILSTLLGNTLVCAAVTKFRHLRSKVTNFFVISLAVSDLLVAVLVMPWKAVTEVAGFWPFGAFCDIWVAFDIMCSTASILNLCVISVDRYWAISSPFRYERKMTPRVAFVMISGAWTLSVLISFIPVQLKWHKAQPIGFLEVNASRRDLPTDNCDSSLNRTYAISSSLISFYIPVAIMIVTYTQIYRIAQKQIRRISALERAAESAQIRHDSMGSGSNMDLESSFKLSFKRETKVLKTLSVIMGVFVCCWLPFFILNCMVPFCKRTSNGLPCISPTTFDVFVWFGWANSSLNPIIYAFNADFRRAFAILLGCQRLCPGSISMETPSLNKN
Chain of D(1A) dopamine receptor (P18901 whole entry): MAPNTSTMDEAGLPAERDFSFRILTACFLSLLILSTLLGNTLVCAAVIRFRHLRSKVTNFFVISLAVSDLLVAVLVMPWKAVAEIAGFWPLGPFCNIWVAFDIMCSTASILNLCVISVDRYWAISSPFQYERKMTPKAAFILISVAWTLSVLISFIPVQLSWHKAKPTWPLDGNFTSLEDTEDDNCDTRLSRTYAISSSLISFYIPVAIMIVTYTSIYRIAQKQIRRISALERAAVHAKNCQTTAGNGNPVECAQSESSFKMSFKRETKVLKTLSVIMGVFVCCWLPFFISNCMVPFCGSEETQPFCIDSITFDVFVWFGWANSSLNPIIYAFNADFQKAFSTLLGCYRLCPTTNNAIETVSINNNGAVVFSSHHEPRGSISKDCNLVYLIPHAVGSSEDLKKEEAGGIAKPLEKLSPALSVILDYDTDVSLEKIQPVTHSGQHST

| Ki (D(2) dopamine receptor) [nM] | Ki (D(1) dopamine receptor) [nM] | Ki (D(1A) dopamine receptor) [nM] | SMILES | further results |
| --- | --- | --- | --- | --- |
| > 30000 | 52.5 | 103 | NC[C@@H]1O[C@H](c2ccccc2)Cc2c(O)cccc21 | – |
| 569 | 32.4 | 5.1 | Cl.NC[C@@H]1O[C@H](c2ccccc2)Cc2c1ccc(Br)c2O | Activity (Rattus norvegicus [1]): 748; Activity (Rattus norvegicus [2]): 151; Ki [3]: 312 nM; Ki [4]: 360 nM; Activity (Rattus norvegicus [5]): 1007; Ki [6]: 1820 nM; Ki [7]: 18400 nM; Ki [8]: > 30000 nM; Ki [9]: 6360 nM |
| 4610 | 121 | 263 | CNC[C@@H]1O[C@H](C2CCCCC2)Cc2c1ccc(C)c2O | – |
| – | – | – | Oc1cc2c(cc1O)[C@@H](c1ccccc1)CNCC2 [(R)-SKF-38393] | Activity (Rattus norvegicus [10]): 608; Activity (Rattus norvegicus [11]): 241; Activity (Rattus norvegicus [12]): 47 |
| 18000 | 125 | 284 | Cc1ccc2c(c1O)C[C@@H](C1CCCCC1)O[C@H]2CN(C)C | – |
| > 30000 | 100 | 86.4 | Br.Cc1ccc2c(c1O)C[C@@H](C1CCCCC1)O[C@H]2CN | Activity (Rattus norvegicus [1]): 751; Activity (Rattus norvegicus [2]): 4; Ki [3]: 54.1 nM; Ki [4]: 358 nM; Activity (Rattus norvegicus [5]): 227; Ki [6]: > 30000 nM; Ki [7]: 19200 nM; Ki [8]: 1870 nM; Ki [9]: 242 nM |
| 2630 | 454 | 2820 | CCCNC[C@@H]1O[C@H](C2CCCCC2)Cc2c1ccc(C)c2O | – |
| 1960 | 197 | 366 | NC[C@H]1O[C@H](c2ccccc2)Cc2c1ccc(Br)c2O | – |
| > 30000 | 247 | 166 | COc1ccc2c(c1O)C[C@@H](c1ccccc1)O[C@H]2CN | – |
| 1120 | – | 5.4 | NC[C@@H]1O[C@H](C2CCCCC2)Cc2c1ccc(O)c2O | – |
